One series addresses CDK9/cyclin T1 (Homo sapiens, UniProt P50750). Nature of the series: Inhibition of CDK9/Cyclin T1 (unknown origin) preincubated for 10 mins followed by ATP and CTD3 addition and measured after 30 mins by mobility shift assay. The series is classed as protein-complex assay.
The test system of series [1] is MV4-11. Nature of the series: Antiproliferative activity against human MV4-11 cells assessed as inhibition of cell growth incubated for 72 hrs by CTG- luminescence assay. In kind it is functional, cell-based. The following applies: MV4-11, 72 h.
In series [2] the test system is MV4-11. In words: Antiproliferative activity against human MV4-11 cells assessed as inhibition of cell growth at 0.37 uM incubated for 72 hrs by CTG- luminescence assay relative to control. In kind it is functional.
Series [3] has as its system MV4-11. In words: Downregulation of c-Myc expression in human MV4-11 cells at 1 uM incubated for 24 hrs by Western blot analysis. In kind it is functional, cell-based. A general note: In western blotting, separated proteins are transferred to a membrane and probed.
The test system of series [4] is MV4-11. Nature of the series: Inhibition of RNA polymerase 2 phosphorylation at Ser2 residue in human MV4-11 cells at 1 uM incubated for 24 hrs by Western blot analysis. The series is classed as cell-based.
The subject of series [5] is MV4-11. Nature of the series: Downregulation of Mcl-1 expression in human MV4-11 cells at 1 uM incubated for 24 hrs by Western blot analysis. In kind it is functional, cell-based.
A short description of series [6]: MRT(0 to t) in Sprague-Dawley rat at 1 mg/kg, iv bolus injection measured upto 24 hrs by LC-MS/MS analysis. In kind it is ADME, organism-based. The following applies: in vivo.
Series [7] is described as follows: AUC(0 to t) in Sprague-Dawley rat at 1 mg/kg, iv bolus injection measured upto 24 hrs by LC-MS/MS analysis. In kind it is ADME, organism-based. Set-up: dose 1 mg/kg, time < 24 hrs, route iv. The following applies: in vivo.
Series [8] in a line: Initial plasma concentration in Sprague-Dawley rat at 1 mg/kg, iv bolus injection measured upto 24 hrs by LC-MS/MS analysis. In kind it is ADME, organism-based.
Series [9] is described as follows: Half life in Sprague-Dawley rat at 1 mg/kg, iv bolus injection measured upto 24 hrs by LC-MS/MS analysis. The series is classed as ADME, organism-based. The conditions noted are these: in vivo.
The nature of series [10]: Clearance in Sprague-Dawley rat at 1 mg/kg, iv bolus injection measured upto 24 hrs by LC-MS/MS analysis. In kind it is ADME, organism-based. The following applies: in vivo.
Series [11] is described as follows: AUC(0 to infinity) in Sprague-Dawley rat at 1 mg/kg, iv bolus injection measured upto 24 hrs by LC-MS/MS analysis. Set-up: time < 24 hrs, dose 1 mg/kg, route iv. The series is classed as ADME, organism-based. The following applies: in vivo.
A short description of series [12]: Volume of distribution at steady state in Sprague-Dawley rat at 1 mg/kg, iv bolus injection measured upto 24 hrs by LC-MS/MS analysis. The series is classed as ADME, organism-based. The following applies: in vivo, read-out: Vdss.
The nature of series [13]: Kinetic solubility of the compound in pH 7.4 PBS buffer incubated for 24 hrs under shaking condition by HPLC analysis. In kind it is physicochemical. The following applies: read-out: Kinetic_solubility.
Series [14] is described as follows: Elimination rate constant in Sprague-Dawley rat at 1 mg/kg, iv bolus injection measured upto 24 hrs by LC-MS/MS analysis. The series is classed as ADME, organism-based. The conditions noted are these: in vivo.
Series [15] is described as follows: MRT(0 to infinity) in Sprague-Dawley rat at 1 mg/kg, iv bolus injection measured upto 24 hrs by LC-MS/MS analysis. The following applies: in vivo. In kind it is ADME, organism-based.

In brackets after ≈: the same amount, converted by molar mass. Activity calls are given as the source filed them. No cut-off for these calls is given here. Some results are limits rather than exact numbers.

CDK9/cyclin T1, sequence (O60563 whole entry): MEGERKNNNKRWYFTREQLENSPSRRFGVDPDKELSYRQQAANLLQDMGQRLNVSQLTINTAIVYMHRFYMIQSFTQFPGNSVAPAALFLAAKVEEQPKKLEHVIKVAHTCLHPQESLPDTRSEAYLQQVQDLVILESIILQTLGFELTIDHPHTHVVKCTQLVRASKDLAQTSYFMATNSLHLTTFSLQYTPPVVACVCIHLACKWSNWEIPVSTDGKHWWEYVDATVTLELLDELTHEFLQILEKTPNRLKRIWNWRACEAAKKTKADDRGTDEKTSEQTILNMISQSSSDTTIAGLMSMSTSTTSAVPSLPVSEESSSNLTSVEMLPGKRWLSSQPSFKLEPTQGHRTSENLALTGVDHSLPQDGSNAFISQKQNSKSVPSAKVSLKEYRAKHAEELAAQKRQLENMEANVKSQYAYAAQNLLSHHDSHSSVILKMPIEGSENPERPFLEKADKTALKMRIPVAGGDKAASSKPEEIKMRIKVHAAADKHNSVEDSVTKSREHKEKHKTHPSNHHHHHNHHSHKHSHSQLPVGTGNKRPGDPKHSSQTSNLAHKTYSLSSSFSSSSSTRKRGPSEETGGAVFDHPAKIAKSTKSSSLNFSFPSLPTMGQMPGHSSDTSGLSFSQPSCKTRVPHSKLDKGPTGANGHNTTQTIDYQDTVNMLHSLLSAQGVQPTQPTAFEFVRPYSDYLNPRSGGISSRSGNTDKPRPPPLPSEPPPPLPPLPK
CDK9/cyclin T1, sequence (P50750 whole entry): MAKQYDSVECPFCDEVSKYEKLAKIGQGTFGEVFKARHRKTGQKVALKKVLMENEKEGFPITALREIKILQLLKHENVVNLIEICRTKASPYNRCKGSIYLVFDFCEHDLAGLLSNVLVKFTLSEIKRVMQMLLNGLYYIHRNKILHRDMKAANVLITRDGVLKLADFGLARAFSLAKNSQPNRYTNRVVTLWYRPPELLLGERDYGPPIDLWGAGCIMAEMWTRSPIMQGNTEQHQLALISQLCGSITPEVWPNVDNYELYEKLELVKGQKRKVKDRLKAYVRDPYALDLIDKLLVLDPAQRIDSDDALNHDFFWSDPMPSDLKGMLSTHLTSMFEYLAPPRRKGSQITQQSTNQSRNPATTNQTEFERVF

`CCN1C(=O)COc2c(CN3CCOC[C@H]3C)cc(Nc3ncc(F)c(-c4ccc(F)cc4OC)n3)cc21`: the IC50 at CDK9/cyclin T1 came to 1.9 nM; in the series with MV4-11 [1] it was 364 nM.

In the case of `CCN1C(=O)COc2c(CN(C)CCN(C)C)cc(Nc3ncc(F)c(-c4ccc(F)cc4OC)n3)cc21`, the IC50 on CDK9/cyclin T1 was 2.2 nM; in the series with MV4-11 [1], 143 nM.

In the case of `CCN1C(=O)COc2c(CN3CCCCC3)cc(Nc3ncc(F)c(-c4ccc(F)cc4OC)n3)cc21`, the IC50 on CDK9/cyclin T1 stood at 2.7 nM; in the series on MV4-11 [1], 50 nM.

Consider `CCN1C(=O)COc2c(CN3CCOCC3)cc(Nc3nccc(-c4ccc(F)cc4OC)n3)cc21`, for which the IC50 on CDK9/cyclin T1 came to 2.6 nM; with MV4-11 [1], 228 nM.

For `CCN1C(=O)COc2c(CN3CCOCC3)cc(Nc3nccc(-c4ccc(F)cc4OCc4ccccc4)n3)cc21`, the IC50 at CDK9/cyclin T1 is greater than 100 nM.

Consider `CCN1C(=O)COc2c(CN3CCS(=O)(=O)CC3)cc(Nc3ncc(F)c(-c4ccc(F)cc4OC)n3)cc21`, for which the IC50 on CDK9/cyclin T1 was determined as 6 nM. Besides, in the series on MV4-11 [2], the inhibition at 0.37 µM is 15%.

For the compound `CCN1C(=O)COc2c(CN3CCOCC3)cc(Nc3nccc(-c4ccc5nn(C)c(C(C)C)c5c4)n3)cc21`, the IC50 at CDK9/cyclin T1 came out at 21 nM.

In the case of `CCN1C(=O)COc2c(CN3CCOCC3)cc(Nc3nccc(-c4cn(C)c5ccccc45)n3)cc21`, the IC50 on CDK9/cyclin T1 amounted to 39 nM.

Take `CCN1C(=O)COc2c(CN3CCOCC3)cc(Nc3cc(-c4ccc(F)cc4OC)c(Cl)cn3)cc21`: on CDK9/cyclin T1, the IC50 came out at 80 nM.

For the compound `CCN1C(=O)COc2c(CN3CCNCC3)cc(Nc3ncc(F)c(-c4ccc(F)cc4OC)n3)cc21`, the figures for the IC50 at CDK9/cyclin T1 and in the series with MV4-11 [1] were 4.2 nM and 128 nM, respectively.

Consider `CCN1C(=O)COc2c(CN3CCSCC3)cc(Nc3ncc(F)c(-c4ccc(F)cc4OC)n3)cc21`, for which the IC50 at CDK9/cyclin T1 came to 3.6 nM; in the series on MV4-11 [1], 130 nM.

Take `CCN1C(=O)COc2c(CN3CCN(C)CC3)cc(Nc3ncc(F)c(-c4ccc(F)cc4OC)n3)cc21`: the IC50 at CDK9/cyclin T1 amounted to 5.4 nM; in the series with MV4-11 [1] it was 253 nM.

As for `CCN1C(=O)COc2c(CN3CCC(N(C)C)C3)cc(Nc3ncc(F)c(-c4ccc(F)cc4OC)n3)cc21` (centres undefined), the figures for the IC50 on CDK9/cyclin T1 and in the series on MV4-11 [1] were 3.7 nM and 124 nM, respectively.

Consider `CN1CC[C@H](c2c(O)cc(O)c3c(=O)cc(-c4ccccc4Cl)oc23)[C@H](O)C1`, for which the result in the series on MV4-11 [3] and with MV4-11 [5] was Active. In addition, the inhibition entry in the series on MV4-11 [4] was “Active”.

As for `CCN1C(=O)COc2c(CN3CCOCC3)cc(Nc3nccc(-c4cccnc4)n3)cc21`, the IC50 at CDK9/cyclin T1 is 6.7 nM; with MV4-11 [1] it was 306 nM.

As to `CCN1C(=O)COc2c(CN3CCC(N4CCOCC4)CC3)cc(Nc3ncc(F)c(-c4ccc(F)cc4OC)n3)cc21`, the results for the IC50 on CDK9/cyclin T1 and in the series on MV4-11 [1] were 2.1 nM and 109 nM, respectively.

For `CCN1C(=O)COc2c(CN3CCOCC3)cc(Nc3cc(-c4ccc(F)cc4OC)c(F)cn3)cc21`, the IC50 at CDK9/cyclin T1 stood at 42 nM.

Consider `CCN1C(=O)COc2c(CN3CCOCC3)cc(Nc3nccc(-c4ccc5nnn(C(C)C)c5c4)n3)cc21`, for which the values for the IC50 at CDK9/cyclin T1 and with MV4-11 [1] were 13 nM and 184 nM, respectively.

`CCN1C(=O)COc2c(CN3CCN(S(C)(=O)=O)CC3)cc(Nc3ncc(F)c(-c4ccc(F)cc4OC)n3)cc21` returned an MRT last at 24 h in series [6] of 14.4 min. The same compound registered an AUC(0-t) at 24 h in series [7] of 245 ng·h/mL. This compound also displayed a C0 at 24 h in series [8] of 1060 ng/mL. For the same compound, the 50% inhibitory concentration (IC50) on CDK9/cyclin T1 was 3 nM; in the series with MV4-11 [1] it was 15 nM. This compound also gave a half-life in series [9] of 15.9 min. In [10], this compound returned a clearance of 68.1 mL/min/kg. For the same compound, the AUC(0-inf) in series [11] came to 246 ng·h/mL. In addition, the Vd in series [12] amounted to 1.01 L/kg. For the same compound, the solubility kinetic at 24 h in [13] turned out to be 30.5 µg/mL (≈ 51.8 µM). The k el at 24 h in series [14] was 0.000728 s⁻¹. The compound further came in with an MRT inf in series [15] of 14.8 min.

As for `CCN1C(=O)COc2c(CN3CCN(C(C)C)CC3)cc(Nc3ncc(F)c(-c4ccc(F)cc4OC)n3)cc21`, the half-maximal inhibitory concentration (IC50) on CDK9/cyclin T1 is 3.4 nM; in the series on MV4-11 [1] it was 149 nM.

`CCN1CCN(Cc2cc(Nc3ncc(F)c(-c4ccc(F)cc4OC)n3)cc3c2OCC(=O)N3CC)CC1`: the values for the IC50 at CDK9/cyclin T1 and in the series with MV4-11 [1] were 4.4 nM and 142 nM, respectively.

`CCN(CC)Cc1cc(Nc2ncc(F)c(-c3ccc(F)cc3OC)n2)cc2c1OCC(=O)N2CC` had an MRT last at 24 h in [6] of 36.7 min. In [7], this compound registered an AUC(0-t) at 24 h of 107 ng·h/mL. Also, in series [8], the C0 at 24 h came to 155 ng/mL. For the same compound, the IC50 amounted to 2.6 nM on CDK9/cyclin T1 and 26 nM in the series on MV4-11 [1]. For the same compound, the half-life in [9] was 29.8 min. The same compound displayed a clearance in series [10] of 168 mL/min/kg. The AUC(0-inf) in [11] amounted to 111 ng·h/mL. In series [12], the Vd stood at 6.45 L/kg. Further, the solubility kinetic at 24 h in series [13] stood at 3.9 µg/mL (≈ 7.84 µM). This compound showed a k el at 24 h in series [14] of 0.0004 s⁻¹. In addition, the MRT inf in [15] was 41.3 min.

For `CCN1C(=O)COc2c(CN3CCN(C4COC4)CC3)cc(Nc3ncc(F)c(-c4ccc(F)cc4OC)n3)cc21`, the values for the IC50 at CDK9/cyclin T1 and with MV4-11 [1] were 1.6 nM and 105 nM, respectively.

For the compound `CCN1C(=O)COc2c(CN3CCOCC3)cc(Nc3nccc(-c4ccc5nc(C)n(C(C)C)c5c4)n3)cc21`, the IC50 on CDK9/cyclin T1 was determined as 23 nM.

On to `CCN1C(=O)COc2c(CN(C)CCNC)cc(Nc3ncc(F)c(-c4ccc(F)cc4OC)n3)cc21`, for which the IC50 was found to be 2.5 nM at CDK9/cyclin T1 and 89 nM in the series on MV4-11 [1].

In the case of `CCN1C(=O)COc2c(CN3CCOCC3)cc(Nc3ncc(F)c(-c4ccc(F)cc4OC)n3)cc21`, the IC50 at CDK9/cyclin T1 was 1.1 nM; in the series with MV4-11 [1] it was 105 nM.

For the compound `CCN1C(=O)COc2c(CN(C)CCOC)cc(Nc3ncc(F)c(-c4ccc(F)cc4OC)n3)cc21`, the IC50 is 2.3 nM on CDK9/cyclin T1 and 65 nM in the series on MV4-11 [1].

As usually defined, the IC50 is the midpoint of a concentration-inhibition curve. For orientation: inhibition means the share of the control response that was lost under treatment. Broadly, the MRT last is a mean duration of stay, worked out from the concentration-time curve. What is called AUC(0-t) is the area under the concentration-time curve up to a stated or last time point. Read a low AUC(0-t) as less exposure. A word on the half-life: it is the time in which the quantity being followed falls by half. A high value points to slow loss. Usually clearance stands for the volume of plasma or blood freed of the substance per unit of time. High values mean efficient removal, low ones inefficient removal. What is called AUC(0-inf) is the area under the concentration-time curve extrapolated to infinity. Lower therefore signals less exposure. What is called MRT inf is a mean duration of stay, worked out from the concentration-time curve.

Source of the values: ChEMBL document CHEMBL5137023, “Discovery of 2H-benzo[b][1,4]oxazin-3(4H)-one derivatives as potent and selective CDK9 inhibitors that enable transient target engagement for the treatment of hematologic malignancies” (Eur J Med Chem, 2022).
